IC50 and ED50 data for 24 compounds are collected here from patent publication US4350697A, “Antidepressant and neuroleptic benzothiopyrano [2,3-c]-pyridines” (Roussel Uclaf, priority 1980, dated 1982).

Where a name gives a salt, the structure may show the parent alone. Some results are limits rather than exact numbers.

One assay deals with α-noradrenergic receptor. Kind of assay: [3H] WB-4101 receptor binding displacement, rat cortical membranes (test C). As to conditions: [3H] WB-4101 0.25 nM, 25° C., 15 minutes.
Assay [1] concerns the target Muscarinic chloinergic receptor. Type of assay: binding. As to conditions: [3H] QNB 0.3 nM, rat forebrain membranes, 25° C., 1 hour; read-out: IC50 test D.
In assay [2] the target is neuroleptic receptors (frontal cortex membranes, major serotonergic component). Put plainly: [3H] spiroperidol receptor binding displacement on frontal cortex membranes (test A). As to conditions: [3H] spiroperidol 0.19 nM, rat frontal cortex membranes, 37° C., 10 minutes. The text has this: A. [^3 H] Spiroperidol binding to neuroleptic receptors in membranes prepared from the striatum and frontal cortex of rats
The binding of [^3 H] spiroperidol to frontal cortex membranes appears to entail a major serotonergic component, whereas in striatal membranes the binding is predominantly dopaminergic [Leysen et al, Nature Vol. 272 (1978) p. 168-171] The ability of drugs to displace this radioligand from the frontal cortical receptors matches their activity in other models of serotonergic function, both for agonists and antagonists. Likewise, in striatal membranes, such activities predict the antidopaminergic action of neuroleptic drugs.
[Phenyl-4(n)-^3 H] spiroperidol (Radiochemical Centre, TRK 570 21 Ci/mmol was used as the labelled ligand supplied as a 250 μCi/250 μl solution in ethanol and this solution was diluted 3.2/10,000 in assay buffer and 0.1 ml of this was added to 2 ml of binding assay.
=0.19 nM [^3 H] spiroperidol
The assay buffer was a modified 50 mM Tris HCl buffer with a pH of 7.6 and containing 120 mM of sodium chloride, 5 mM of potassium chloride, 1 mM of magnesium chloride, 2 mM of calcium chloride, 10 μM of pargyline and 0.1% of ascorbic acid.
The membrane preparation involved dissecting the frontal cortices or striata from 4 male CFHB rats according to J. Glowinski et al [Eur. J. Pharmacol., Vol. 49, (1978), P. 201-202]. The frontal cortex was taken as that cortical tissue in `C`, dorsal to a horizontal reference line passing through the point where the olfactory bulbs join the frontal cortex. The animals were killed by cervical dislocation and the dissected tissue was homogenized in 20 volumes of ice cold 0.32 M sucrose with a Teflon/glass homogeniser. The homogenate was centrifuged at 1000 g for 10 minutes and the resulting supernatant was recentrifuged at 30,000 g for 30 minutes. The supernatant was discarded and the pellet was resuspended by homogenization in 30 volumes of ice cold assay buffer.
Non-specific binding was accounted for by the inclusion of 1 μM (+) butaclamol in blank binding assays and this required a stock solution of 20 μM in distilled water. Solutions of displacing compounds were prepared at 20x final assay concentration in distilled water.
Binding assays of 1.3 ml assay buffer, 0.5 ml membrane suspension, 0.1 ml distilled H2 O or drug solutions and 0.1 ml [^3 H] spiroperidol dilution were made up in ice with the [^3 H] spiroperidol being added last and incubated at 37° C. for 10 minutes. The bound ligand was separated by filtration through Whatman GF/C filters under vacuum followed by 2×10 ml rinses of ice cold assay buffer. The filters were dried at 80° C. and counted in 5 ml volumes of ECONOFLUOR (NEN). All binding assays, controls, blanks and each displacer concentration were run in triplicate. The [^3 H] spiroperidol receptor binding displacement results on frontal cortex membranes (test A) and on striatal membranes (test B) are given in Table III below and the results are expressed as IC50 (nM).

Assay [3] has as its system hypothermia induced by apomorphine. Kind of assay: Reversal of apomorphine hypothermia in mice (test E). The note with it: Mus musculus, ip; male CD/l mice, test drug i.p. 30 minutes before apomorphine hydrochloride 16 mg/kg s.c.; rectal temperature 30 minutes later; read-out: ED50 for the reversal of the hypothermia induced by apomorphine HCl in mice (test E). Type of assay: in vivo. The method, then:
D. Reversal of apomorphine hypothermia in mice
Whereas the reversal of the hypothermia induced in mice by low doses of apomorphine is a characteristic of classical neuroleptic agents, the hypothermia induced by high doses of this agent is specifically reversed by antidepressant drugs [Puech et al., In `Advances in Pharmacology and Therapeutics Vol., 5` ed. Dumont, c. Pergamon p. 171-176 (1979)]. Groups of 10 male CD/l mice (16-22 g) were dosed with vehicle or test drug intraperitoneally 30 minutes prior to the subcutaneously injection of apomorphine hydrochloride at 16 mg/kg. The rectal temperatures were recorded 30 minutes later using a rectal thermometer with digital readout.

As to `Cc1ccc2c(c1)SC1CN(C)CCC1=C2c1ccccc1` (stereo not drawn) [Example 16], the IC50 came out at 1450 nM on α-noradrenergic receptor, 29500 nM in assay [1] and 708 nM in assay [2].

Consider `Cc1cccc(C)c1C1=C2CCN(C)CC2Sc2ccccc21` (stereo not drawn) [Example 23], for which the half-maximal inhibitory concentration (IC50) on α-noradrenergic receptor is 617 nM; in assay [1], 4370 nM; in assay [2], 331 nM. In addition, in assay [3], the ED50 was more than 40 mg/kg.

For `Cc1ccc2c(c1)C(c1ccccc1)=C1CCN(C)CC1S2` (stereo not drawn) [Example 22], the 50% inhibitory concentration (IC50) at α-noradrenergic receptor is 12500 nM; in assay [1], more than 100000 nM; in assay [2], 2450 nM. In addition, the ED50 in assay [3] was more than 100 mg/kg.

As for `Cc1ccc(C2=C3CCN(C)CC3Sc3ccccc32)cc1` (stereo not drawn) [Example 3, 2-methyl-5-(4-tolyl)-1,3,4,10a-tetrahydro-2H[1]benzothiopyrano[2,3-c]pyridine], the IC50 amounted to 29 nM at α-noradrenergic receptor, 73600 nM in assay [1] and 25 nM in assay [2]. Further, in assay [3], the ED50 stood at 20 mg/kg.

For the compound `Cc1cccc(C2=C3CCN(C)CC3Sc3ccccc32)c1` (stereo not drawn) [Example 7], the IC50 at α-noradrenergic receptor is 813 nM; in assay [1] it was 8710 nM; in assay [2] it was 251 nM. Further, the ED50 in assay [3] was more than 40 mg/kg.

With `CN1CCC2=C(c3ccccc3)c3ccc(Cl)cc3SC2C1` (stereo not drawn) [Example 21], the IC50 at α-noradrenergic receptor was found to be 3020 nM; in assay [1] it was 58900 nM; in assay [2], 1140 nM. In assay [3], the ED50 is more than 100 mg/kg.

As to `c1ccc(C2=C3CCNCC3Sc3ccccc32)cc1` (stereo not drawn) [Example 17], the figures for the IC50 (at α-noradrenergic receptor; in assay [1]; in assay [2]) were 676 nM, 19500 nM and 624 nM, respectively. In addition, the ED50 in assay [3] was determined as 35 mg/kg.

Consider `CCCOc1ccc(C2=C3CCN(C)CC3Sc3ccccc32)cc1` (stereo not drawn) [Example 11], for which the half-maximal inhibitory concentration (IC50) is 6760 nM at α-noradrenergic receptor, more than 100000 nM in assay [1] and 1250 nM in assay [2]. Besides, the ED50 in assay [3] amounted to 22 mg/kg.

With `CN1CCC2=C(c3ccccc3)c3cccc(Cl)c3SC2C1` (stereo not drawn) [Example 20], the IC50 at α-noradrenergic receptor was 1050 nM; in assay [1] it was 67800 nM; in assay [2], 304 nM.

As to `CN1CCC2=C(c3ccccc3)c3cc(Cl)ccc3SC2C1` (stereo not drawn) [Example 13], the figures for the IC50 (on α-noradrenergic receptor; in assay [1]; in assay [2]) were 355 nM, 47900 nM and 1480 nM, respectively. For the same compound, the ED50 in assay [3] was more than 40 mg/kg.

As for `Cc1cccc2c1SC1CN(C)CCC1=C2c1ccccc1` (stereo not drawn) [Example 18], the IC50 was 794 nM at α-noradrenergic receptor, 38900 nM in assay [1] and 174 nM in assay [2]. Further, in assay [3], the ED50 was more than 40 mg/kg.

With `CCc1ccc(C2=C3CCN(C)CC3Sc3ccccc32)cc1` (stereo not drawn) [Example 9], the IC50 on α-noradrenergic receptor was 59 nM; in assay [1] it was more than 100000 nM; in assay [2], 50 nM. In assay [3], the ED50 is more than 40 mg/kg.

For `Cc1ccc(C2=C3CCN(C)CC3Sc3ccccc32)cc1C` (stereo not drawn) [Example 14], the figures for the IC50 (on α-noradrenergic receptor; in assay [1]; in assay [2]) were 502 nM, more than 100000 nM and 155 nM, respectively. In assay [3], the ED50 stood at 30 mg/kg.

As for `CCN1CCC2=C(c3ccccc3)c3ccccc3SC2C1` (stereo not drawn) [Example 12], the IC50 on α-noradrenergic receptor is 502 nM; in assay [1] it was 19000 nM; in assay [2] it was 398 nM.

Take `CN1CCC2=C(c3ccc(Cl)cc3)c3ccccc3SC2C1` (stereo not drawn) [Example 2]: the half-inhibitory concentration (IC50) was 692 nM at α-noradrenergic receptor, more than 100000 nM in assay [1] and 602 nM in assay [2]. Also, the ED50 in assay [3] is more than 40 mg/kg.

Take `Cc1ccc(C2=C3CCN(C)CC3Sc3ccccc32)c(C)c1` (stereo not drawn) [Example 19, 2-methyl-5-(2,4-dimethylphenyl)-1,3,4,10a-tetrahydro-2H-[1]benzothiopyrano[2,3-c]pyridine hydrochloride]: the IC50 was found to be 23 nM on α-noradrenergic receptor, 42700 nM in assay [1] and 32 nM in assay [2].

On to `Cc1ccccc1C1=C2CCN(C)CC2Sc2ccccc21` (stereo not drawn) [Example 10], for which the IC50 was 813 nM at α-noradrenergic receptor, 8130 nM in assay [1] and 105 nM in assay [2]. For the same compound, the ED50 in assay [3] was 80 mg/kg.

Consider `CN1CCC2=C(c3cccc(Cl)c3)c3ccccc3SC2C1` (stereo not drawn) [Example 5], for which the half-inhibitory concentration (IC50) at α-noradrenergic receptor was 1950 nM; in assay [1] it was 16200 nM; in assay [2] it was 427 nM. Also, in assay [3], the median effective dose (ED50) is more than 40 mg/kg.

As for `COc1ccc(C2=C3CCN(C)CC3Sc3ccccc32)cc1` (stereo not drawn) [Example 4], the concentration for half-maximal inhibition (IC50) is 120 nM on α-noradrenergic receptor, 62000 nM in assay [1] and 131 nM in assay [2]. In addition, in assay [3], the median effective dose (ED50) was 15 mg/kg.

On to `CN1CCC2=C(c3ccc(Cl)c(Cl)c3)c3ccccc3SC2C1` (stereo not drawn) [Example 8], for which the 50% inhibitory concentration (IC50) on α-noradrenergic receptor is 631 nM; in assay [1], more than 100000 nM; in assay [2], 537 nM.

As for `CN1CCC2=C(c3ccc(N(C)C)cc3)c3ccccc3SC2C1` (stereo not drawn) [Example 6, 2-methyl-5-(4-dimethylaminophenyl)-1,3,4,10a-tetrahydro-2H[1]benzothiopyrano[2,3-c]pyridine], the half-inhibitory concentration (IC50) was 100 nM on α-noradrenergic receptor, more than 100000 nM in assay [1] and 112 nM in assay [2].

On to `CN1CCC2=C(c3ccc(N)cc3)c3ccccc3SC2C1.Cl` (stereo not drawn) [Example 15, 5-(4-aminophenyl)-2-methyl-1,3,4,10a-tetrahydro-2H-[1]benzothiopyrano[2,3-c]pyridine hydrochloride], for which the results for the IC50 (on α-noradrenergic receptor; in assay [1]; in assay [2]) were 372 nM, 7940 nM and 158 nM, respectively. Moreover, the median effective dose (ED50) in assay [3] came to 5 mg/kg.

For the compound `Cc1cc(C)c(C2=C3CCN(C)CC3Sc3ccccc32)c(C)c1` (stereo not drawn) [Example 24], the half-maximal inhibitory concentration (IC50) on α-noradrenergic receptor amounted to 617 nM; in assay [1], 1180 nM; in assay [2] it was 308 nM. The ED50 in assay [3] is more than 40 mg/kg.

With `CN1CCC2=C(c3ccccc3)c3ccccc3SC2C1.Cl` (stereo not drawn) [Example 1, 2-methyl-5-phenyl-1,3,4,10a-tetrahydro-2H-[1]-benzothiopyrano[2,3-c]pyridine hydrochloride], the figures for the IC50 (at α-noradrenergic receptor; in assay [1]; in assay [2]) were 394 nM, 14000 nM and 250 nM, respectively. Besides, the median effective dose (ED50) in assay [3] was found to be 30 mg/kg.
